The target in assay [1] is cortisol synthase (CYP11B1) (Macaca fascicularis, UniProt A0A2K5ULY1). Briefly: Inhibition of cortisol synthesis (cynomolgus adrenal mitochondria, cortisol by mass spectrometry). The class given is biochemical, cynomolgus monkey. To be noted: cynomolgus adrenal gland mitochondria, 11-deoxycortisol as substrate, cortisol measured as product; read-out: CYP11B1 Inhibition IC50. As to the method: The aldosterone synthase and cortisol synthase inhibition assays employ cynomolgus adrenal gland mitochondria as the source of aldosterone synthase (CYP11B2) and cortisol synthase (CYP11B1). Mitochondria are prepared from frozen cynomolgus monkey adrenal glands according to Method A described in by J. D. McGarry et al. (Biochem. J., 1983, 214, 21-28), with a final resuspension in the AT buffer described in R. Yamaguchi et al. (Cell Death and Differentiation, 2007, 14, 616-624), frozen as aliquots in liquid nitrogen and stored at −80° C. until use. Activity of CYP11B2 and CYP11B1 in these preparations is defined as the amount of enzyme that generates 1 pmol of product in one hour under the conditions described. Dose dependent inhibition is quantified by the inclusion of compound at various concentrations. Maximum activity (100%) is defined by reactions containing NADPH, but without compound. Activities at each concentration are expressed as a percentage of the maximum activity (y-axis) and plotted against concentration of compound (x-axis) and the concentration corresponding to 50% activity (IC50) determined using the XLFit curve-fitting program using a 4-parameter logistic model. Assays are performed as for aldosterone synthase except for the use of 150 units of CYP11B1, 11-deoxycortisol as substrate and cortisol measured as product.

For assay [2], the target named is T1, aldosterone synthase (CYP11B2) (Macaca fascicularis, UniProt A0A2K5UPL9).
T1 construct: cynomolgus adrenal gland mitochondria as the source of aldosterone synthase (CYP11B2); from tissue; host or cells: cynomolgus monkey adrenal gland mitochondria
T1 sequence (A0A2K5UPL9 1-503): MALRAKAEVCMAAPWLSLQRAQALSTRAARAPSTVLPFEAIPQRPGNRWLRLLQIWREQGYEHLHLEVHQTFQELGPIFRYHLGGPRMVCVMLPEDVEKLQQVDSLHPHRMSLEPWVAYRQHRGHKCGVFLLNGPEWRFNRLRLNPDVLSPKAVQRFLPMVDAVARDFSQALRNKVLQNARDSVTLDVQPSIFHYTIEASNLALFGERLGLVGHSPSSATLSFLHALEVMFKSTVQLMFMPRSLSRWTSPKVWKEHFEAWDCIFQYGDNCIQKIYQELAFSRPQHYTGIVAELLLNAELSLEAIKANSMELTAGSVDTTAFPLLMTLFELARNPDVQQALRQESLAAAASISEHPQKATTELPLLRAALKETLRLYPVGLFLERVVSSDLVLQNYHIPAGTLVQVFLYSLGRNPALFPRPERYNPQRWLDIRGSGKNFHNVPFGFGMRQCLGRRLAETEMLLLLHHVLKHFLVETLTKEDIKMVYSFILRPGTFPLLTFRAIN
Briefly: Inhibition of aldosterone synthase (cynomolgus adrenal mitochondria, aldosterone by mass spectrometry). The class given is biochemical, cynomolgus monkey. The settings on record: cynomolgus adrenal gland mitochondria, 2 μM corticosterone substrate, 90 minutes at 37° C. As to the method:
The aldosterone synthase and cortisol synthase inhibition assays employ cynomolgus adrenal gland mitochondria as the source of aldosterone synthase (CYP11B2) and cortisol synthase (CYP11B1). Mitochondria are prepared from frozen cynomolgus monkey adrenal glands according to Method A described in by J. D. McGarry et al. (Biochem. J., 1983, 214, 21-28), with a final resuspension in the AT buffer described in R. Yamaguchi et al. (Cell Death and Differentiation, 2007, 14, 616-624), frozen as aliquots in liquid nitrogen and stored at −80° C. until use. Activity of CYP11B2 and CYP11B1 in these preparations is defined as the amount of enzyme that generates 1 pmol of product in one hour under the conditions described.
Assays are performed in 96-well format in a final volume of 60 µL/well, containing 100 mM potassium phosphate, pH 7.4, 1% (v/v) DMSO, and additionally, 2 μM of corticosterone and 50 units of CYP11B2 activity. Reactions are started by the addition of NADPH to 1 mM and allowed to proceed for 90 minutes at 37° C. Reactions are terminated by the addition of 60 μL of MeCN containing an internal standard for mass spectrometry. One hundred microliters are then transferred to a glass filter plate and centrifuged at 570×g for 5 minutes and the filtrate is collected. Reaction product aldosterone is quantified by mass spectrometry. To determine the assay blank value (0% activity), NADPH is omitted from some reactions.
Dose dependent inhibition is quantified by the inclusion of compound at various concentrations. Maximum activity (100%) is defined by reactions containing NADPH, but without compound. Activities at each concentration are expressed as a percentage of the maximum activity (y-axis) and plotted against concentration of compound (x-axis) and the concentration corresponding to 50% activity (IC50) determined using the XLFit curve-fitting program using a 4-parameter logistic model.

On to `CC1(C)CC(=O)c2c(noc2Cc2ccc(C#N)cc2)C1` [Cpd 23, 4-(6,6-Dimethyl-4-oxo-4,5,6,7-tetrahydro-benzo[c]isoxazol-3-ylmethyl)-benzonitrile], for which the 50% inhibitory concentration (IC50) in assay [1] worked out at 74000 nM; in assay [2], 69 nM.

Consider `CC1(C)CC(=O)c2c(noc2Cc2ccc(C(=O)NCCS(N)(=O)=O)cc2)C1` [Cpd 54, 4-(6,6-Dimethyl-4-oxo-4,5,6,7-tetrahydro-benzo[c]isoxazol-3-ylmethyl)-N-(2-sulfamoyl-ethyl)-benzamide], for which the half-inhibitory concentration (IC50) in assay [1] came out at 2500 nM; in assay [2] it was 58 nM.

For `CC(C)C1CC(=O)c2c(noc2Cc2ccc(C#N)cc2)C1` (single isomer, unassigned) [Cpd 39A, 4-(-6-Isopropyl-4-oxo-4,5,6,7-tetrahydro-benzo[c]isoxazol-3-ylmethyl)-benzonitrile], the IC50 is 8300 nM in assay [1] and 230 nM in assay [2].

As to `CN(C)C(=O)CCCOc1ccc(Cc2onc3c2C(=O)CC(C)(C)C3)cc1` [Cpd 79], the half-inhibitory concentration (IC50) in assay [1] is 7800 nM; in assay [2] it was 23 nM.

In the case of `O=C1CC2(CCC2)Cc2noc(Cc3ccccc3)c21` [Cpd 1, 6,6-spiro-cyclobutyl-3-benzyl-6,7-dihydro-5-H-benzo[c]isoxazole-4-one], the IC50 in assay [1] amounted to 1100 nM; in assay [2], 7.2 nM.

For `CC1CC(=O)c2c(noc2Cc2ccc(C(N)=O)cc2)C1` (stereo not drawn) [Cpd 74, 4-(6-Methyl-4-oxo-4,5,6,7-tetrahydro-benzo[c]isoxazol-3-ylmethyl)-benzamide], the figures for the IC50 in assay [1] and in assay [2] were 3000 nM and 82 nM, respectively.

Turning to `N#Cc1ccc(Cc2onc3c2C(=O)CC2(CCC2)C3)cc1` [Cpd 38, 4-(-6,6-spiro-cyclobutyl-4-oxo-4,5,6,7-tetrahydro-benzo[c]isoxazol-3-ylmethyl)-benzonitrile], the IC50 in assay [1] was 1000 nM; in assay [2], 55 nM.

As for `O=C1CC(Cc2ccccc2)Cc2noc(Cc3ccc(C(=O)N4CC[C@@H](O)C4)cc3)c21` (stereo partly drawn) [Cpd 57, 6-Benzyl-3-[4-((R)-3-hydroxy-pyrrolidine-l-carbonyl)-benzyl]-6,7-dihydro-5H-benzo[c]isoxazol-4-one], the IC50 in assay [1] worked out at 2600 nM; in assay [2], 80 nM.

Take `CC1(C)CC(=O)c2c(noc2Cc2ccc(C(=O)NCCS(C)(=O)=O)cc2)C1` [Cpd 61, 4-(6,6-Dimethyl-4-oxo-4,5,6,7-tetrahydro-benzo[c]isoxazol-3-ylmethyl)-N-(2-methanesulfonyl-ethyl)-benzamide]: the IC50 was 7400 nM in assay [1] and 91 nM in assay [2].

In the case of `O=C1CC(CC2CC2)Cc2noc(Cc3ccccc3)c21` (stereo not drawn) [Cpd 2, 3-Benzyl-6-cyclopropylmethyl-6,7-dihydro-5H-benzo[c]isoxazol-4-one], the 50% inhibitory concentration (IC50) is 5000 nM in assay [1] and 11 nM in assay [2].

In the case of `CN(CCO)C(=O)c1ccc(Cc2onc3c2C(=O)CC(C)(C)C3)cc1` [Cpd 59, 4-(6,6-Dimethyl-4-oxo-4,5,6,7-tetrahydro-benzo[c]isoxazol-3-ylmethyl)-N-(2-hydroxy-ethyl)-N-methyl-benzamide], the IC50 was determined as 11000 nM in assay [1] and 92 nM in assay [2].

Take `CS(=O)(=O)CCCOc1ccc(Cc2onc3c2C(=O)CC(CC2CC2)C3)cc1` (stereo not drawn) [Cpd 24, 6-Cyclopropylmethyl-3-[4-(3-methanesulfonyl-propoxy)-benzyl]-6,7-dihydro-5H-benzo[c]isoxazol-4-one]: the 50% inhibitory concentration (IC50) worked out at 1300 nM in assay [1] and 17 nM in assay [2].

Consider `CC1(C)CC(=O)c2c(noc2Cc2ccc(C(=O)NCC3(O)CC3)cc2)C1` [Cpd 69, 4-(6,6-Dimethyl-4-oxo-4,5,6,7-tetrahydro-benzo[c]isoxazol-3-ylmethyl)-N-(1-hydroxy-cyclopropylmethyl)-benzamide], for which the results for the 50% inhibitory concentration (IC50) in assay [1] and in assay [2] were 13000 nM and 160 nM, respectively.

Regarding `CC1(C)CC(=O)c2c(noc2Cc2ccc(C(=O)N3CCC[C@H](O)C3)cc2)C1` [Cpd 60, 3-[4-((S)-3-Hydroxy-piperidine-1-carbonyl)-benzyl]-6,6-dimethyl-6,7-dihydro-5H-benzo[c]isoxazol-4-one], the IC50 in assay [1] is 5900 nM; in assay [2], 94 nM.

`CC(C)C1CC(=O)c2c(noc2CC2CCOCC2)C1` (stereo not drawn) [Cpd 7, 6-Isopropyl-3-(tetrahydro-pyran-4-ylmethyl)-6,7-dihydro-5H-benzo[c]isoxazol-4-one]: the values for the IC50 in assay [1] and in assay [2] were 20000 nM and 33 nM, respectively.

As for `CC1CC(=O)c2c(noc2Cc2ccc(OCCCS(C)(=O)=O)cc2)C1` (stereo not drawn) [Cpd 48, 3-[4-(3-Methanesulfonyl-propoxy)-benzyl]-6-methyl-6,7-dihydro-5H-benzo[c]isoxazol-4-one], the half-inhibitory concentration (IC50) in assay [1] amounted to 670 nM; in assay [2], 46 nM.

Turning to `CC(=O)N1CCC(Cc2onc3c2C(=O)CC(C(C)C)C3)CC1` (single isomer, unassigned) [Cpd 15A, 3-(1-Acetyl-piperidin-4-ylmethyl)-6-isopropyl-6,7-dihydro-5H-benzo[c]isoxazol-4-one], the IC50 turned out to be 2800 nM in assay [1] and 22 nM in assay [2].

On to `N#Cc1ccc(Cc2onc3c2C(=O)CC(C2CCOCC2)C3)cc1` (stereo not drawn) [Cpd 12, 4-[4-Oxo-6-(tetrahydro-pyran-4-yl)-4,5,6,7-tetrahydro-benzo[c]isoxazol-3-ylmethyl]-benzonitrile], for which the results for the IC50 in assay [1] and in assay [2] were 51000 nM and 180 nM, respectively.

Regarding `COc1ccc(Cc2onc3c2C(=O)CC(C2CCOCC2)C3)cc1` (stereo not drawn) [Cpd 8, 3-(4-Methoxy-benzyl)-6-(tetrahydro-pyran-4-yl)-6,7-dihydro-5H-benzo[c]isoxazol-4-one], the IC50 in assay [1] was above 100000 nM; in assay [2] it was 78 nM.

For the molecule `CC(=O)N1CCC(Cc2onc3c2C(=O)CC(C(C)C)C3)CC1` (single isomer, unassigned) [Cpd 15B, 3-(1-Acetyl-piperidin-4-ylmethyl)-6-isopropyl-6,7-dihydro-5H-benzo[c]isoxazol-4-one], the IC50 was found to be 18000 nM in assay [1] and 110 nM in assay [2].

With `NC(=O)N1CCC(Cc2onc3c2C(=O)CC2(CCC2)C3)CC1` [Cpd 22, 4-(6,6-spiro-cyclobutyll-4-oxo-4,5,6,7-tetrahydro-benzo[c]isoxazol-3-ylmethyl)-piperidine-l-carboxylic acid amide], the IC50 in assay [1] was 3500 nM; in assay [2] it was 57 nM.

On to `CS(=O)(=O)CCCOc1ccc(Cc2onc3c2C(=O)CC(Cc2ccccc2)C3)cc1` (stereo not drawn) [Cpd 49, 6-Benzyl-3-[4-(3-methanesulfonyl-propoxy)-benzyl]-6,7-dihydro-5H-benzo[c]isoxazol-4-one], for which the 50% inhibitory concentration (IC50) in assay [1] was found to be 1100 nM; in assay [2] it was 150 nM.

As for `CC1(C)CC(=O)c2c(noc2Cc2ccc(OCCCC(=O)N3CC[C@@H](O)C3)cc2)C1` [Cpd 84, 3-{4-[4-((R)-3-Hydroxy-pyrrolidin-1-yl)-4-oxo-butoxy]-benzyl}-6,6-dimethyl-6,7-dihydro-5H-benzo[c]isoxazol-4-one], the figures for the half-inhibitory concentration (IC50) in assay [1] and in assay [2] were 6900 nM and 69 nM, respectively.

As to `O=C(O)c1ccc(Cc2onc3c2C(=O)CC(Cc2ccccc2)C3)cc1` (stereo not drawn) [Cpd 42, 4-(6-Benzyl-4-oxo-4,5,6,7-tetrahydro-benzo[c]isoxazol-3-ylmethyl)-benzoic acid], the half-inhibitory concentration (IC50) in assay [1] is above 100000 nM; in assay [2], 180 nM.

Values taken from patent publication US10131642B1, “Aldosterone synthase inhibitors” (Boehringer Ingelheim International GmbH, priority 2015, dated 2018).
